Laboratory results published in publication PMC9837035 (Nature Communications, 2023).
“And” between values parts separate entries of the source, which are not always exact repeats. Identical values can stand only once.

Columns and labels:
[1] = Hematological and hepatic parameters, 2-week repeated oral dosing; type: in vivo; details: rats, two weeks
[2] = Cell viability assay (WST-8), HUDEP-2; type: cell-based, human; details: human, HUDEP-2 cells, control (0 μM) = 100
Procedure: (§1) A WST-8 (2-(2-methoxy-4-nitrophenyl)-3-(4-nitrophenyl)-5-(2,4-disulfophenyl)-2H-tetrazolium) assay using a Cell Counting Kit-8 (DOJINDO) was performed to measure cell viability using an EnSpire microplate reader (PerkinElmer).

HUDEP-2 cells = experiment: Cell viability assay (WST-8), HUDEP-2; type: cell-based, human; details: for cell viability in HUDEP-2 cells: control (0 μM) = 100
Procedure: as §1

Chain of MLL4 (Q9UMN6 2490-2715): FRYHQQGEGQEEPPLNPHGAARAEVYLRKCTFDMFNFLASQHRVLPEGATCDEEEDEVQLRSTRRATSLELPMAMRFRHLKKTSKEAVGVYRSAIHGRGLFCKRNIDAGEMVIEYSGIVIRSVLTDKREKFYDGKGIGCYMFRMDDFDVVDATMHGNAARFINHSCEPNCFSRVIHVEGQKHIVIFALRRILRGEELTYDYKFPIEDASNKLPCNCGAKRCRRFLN
Chain of MLL4 (Q9UBL3 whole entry, further chain): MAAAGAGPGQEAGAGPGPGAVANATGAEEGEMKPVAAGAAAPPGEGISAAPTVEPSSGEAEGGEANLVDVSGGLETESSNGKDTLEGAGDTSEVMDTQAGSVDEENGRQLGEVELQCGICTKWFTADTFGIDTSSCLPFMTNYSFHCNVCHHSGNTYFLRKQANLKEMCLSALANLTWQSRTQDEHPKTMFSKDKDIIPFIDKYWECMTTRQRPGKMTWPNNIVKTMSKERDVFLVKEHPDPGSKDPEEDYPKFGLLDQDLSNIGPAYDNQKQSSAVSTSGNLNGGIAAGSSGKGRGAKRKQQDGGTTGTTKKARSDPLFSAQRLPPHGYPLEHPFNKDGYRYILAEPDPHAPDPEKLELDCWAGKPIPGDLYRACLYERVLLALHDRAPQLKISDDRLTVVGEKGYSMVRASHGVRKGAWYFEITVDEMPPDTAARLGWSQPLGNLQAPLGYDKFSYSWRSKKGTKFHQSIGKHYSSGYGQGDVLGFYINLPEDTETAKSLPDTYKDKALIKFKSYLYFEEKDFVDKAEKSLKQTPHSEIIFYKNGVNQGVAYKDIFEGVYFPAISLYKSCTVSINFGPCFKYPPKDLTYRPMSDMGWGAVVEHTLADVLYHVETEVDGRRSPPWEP
Chain of MLL4 (Q9C005 whole entry, further chain): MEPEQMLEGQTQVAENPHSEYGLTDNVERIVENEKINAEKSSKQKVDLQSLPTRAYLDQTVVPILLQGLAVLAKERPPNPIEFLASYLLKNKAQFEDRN
Chain of MLL4 (Q15291 whole entry, further chain): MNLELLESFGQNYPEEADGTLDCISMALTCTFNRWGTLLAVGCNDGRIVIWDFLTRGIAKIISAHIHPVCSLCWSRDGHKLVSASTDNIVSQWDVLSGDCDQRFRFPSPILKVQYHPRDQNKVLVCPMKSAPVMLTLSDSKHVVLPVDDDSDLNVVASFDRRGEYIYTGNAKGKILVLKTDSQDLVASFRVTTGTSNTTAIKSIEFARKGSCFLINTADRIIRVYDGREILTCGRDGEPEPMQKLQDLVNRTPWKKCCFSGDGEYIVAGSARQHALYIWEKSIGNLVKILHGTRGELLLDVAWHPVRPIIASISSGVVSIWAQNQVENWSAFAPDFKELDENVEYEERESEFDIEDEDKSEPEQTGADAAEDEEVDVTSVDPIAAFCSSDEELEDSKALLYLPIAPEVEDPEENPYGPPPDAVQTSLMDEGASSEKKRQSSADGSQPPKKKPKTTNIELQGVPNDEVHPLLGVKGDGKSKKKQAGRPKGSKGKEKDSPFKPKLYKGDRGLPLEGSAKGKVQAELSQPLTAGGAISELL

Cc1c(C(=O)NC(CCC2CC2)C(=O)Nc2ccc(C#N)cc2)[nH]c2c1C(=O)CC(C)(C)C2 (stereo not shown) [RK-701]
HCT ([1]; 10 mg/kg): 43.7± 1.7%
HGB ([1]; 10 mg/kg): 15.1 ± 0.7 g/dL
LUC ([1]; 10 mg/kg): 0.4 ± 0.2 x 102 cells/μL
Lymph ([1]; 10 mg/kg): 51.4 ± 10.7 x 102 cells/μL
MCH ([1]; 10 mg/kg): 20.4 ± 0.6 pg
MCHC ([1]; 10 mg/kg): 34.6 ± 0.3 g/dL
MCV ([1]; 10 mg/kg): 58.9 ± 1.6 fL
MONO ([1]; 10 mg/kg): 0.9 ± 0.2 x 102 cells/μL
NEUT ([1]; 10 mg/kg): 6.4 ± 1.7 x 102 cells/μL
PL ([1]; 10 mg/kg): 121 ± 18 mg/dL
RBC ([1]; 10 mg/kg): 741 ± 19 x 104 cells/μL
Retic ([1]; 10 mg/kg): 190 ± 28.3 x 109 cells/L
T-CHO ([1]; 10 mg/kg): 68 ± 13 mg/dL
TG ([1]; 10 mg/kg): 24 ± 15 mg/dL
TP ([1]; 10 mg/kg): 6.0 ± 0.3 g/dL
WBC ([1]; 10 mg/kg): 59.8 ± 12.2 x 102 cells/μL
ALB ([1]; 30 mg/kg): 3.5 ± 0.2 g/dL
ALP ([1]; 30 mg/kg): 511 ± 141 IU/L
ALT ([1]; 30 mg/kg): 26 ± 3 IU/L
AST ([1]; 30 mg/kg): 64 ± 7 IU/L
EOS ([1]; 30 mg/kg): 0.5 ± 0.1 x 102 cells/μL
HCT ([1]; 30 mg/kg): 42.6 ± 1.4%
HGB ([1]; 30 mg/kg): 14.5 ± 0.5 g/dL
LUC ([1]; 30 mg/kg): 0.4 ± 0.1 x 102 cells/μL
Lymph ([1]; 30 mg/kg): 53.0 ± 10.3 x 102 cells/μL
MCH ([1]; 30 mg/kg): 20.0 ± 1.0 pg
MCHC ([1]; 30 mg/kg): 34.0 ± 0.5 g/dL
MCV ([1]; 30 mg/kg): 58.7 ± 2.6 fL
MONO ([1]; 30 mg/kg): 0.9 ± 0.1 x 102 cells/μL
NEUT ([1]; 30 mg/kg): 6.7 ± 2.1 x 102 cells/μL
PLT ([1]; 30 mg/kg): 122 ±15.7 x 104 cells/μL
RBC ([1]; 30 mg/kg): 726 ± 36 x 104 cells/μL
Retic ([1]; 30 mg/kg): 228 ± 37.5 x 109 cells/L
T-CHO ([1]; 30 mg/kg): 64 ± 5 mg/dL
TG ([1]; 30 mg/kg): 17 ± 6 mg/dL
TP ([1]; 30 mg/kg): 5.9 ± 0.2 g/dL
WBC ([1]; 30 mg/kg): 61.6 ± 9.2 x 102 cells/μL
ALB ([1]; 100 mg/kg): 3.4 ± 0.1 g/dL
ALP ([1]; 100 mg/kg): 566 ± 181 IU/L
ALT ([1]; 100 mg/kg): 29 ± 5 IU/L
AST ([1]; 100 mg/kg): 64 ± 5 IU/L
EOS ([1]; 100 mg/kg): 0.6 ± 0.2 x 102 cells/μL
HCT ([1]; 100 mg/kg): 42.9 ± 1.1%
HGB ([1]; 100 mg/kg): 14.8 ± 0.3 g/dL
LUC ([1]; 100 mg/kg): 0.5 ± 0.2 x 102 cells/μL
Lymph ([1]; 100 mg/kg): 64.6 ± 14.9 x 102 cells/μL
MCH ([1]; 100 mg/kg): 20.3 ± 0.2 pg
MCHC ([1]; 100 mg/kg): 34.4 ± 0.3 g/dL
MCV ([1]; 100 mg/kg): 59.0 ± 0.7 fL
MONO ([1]; 100 mg/kg): 1.2 ± 0.4 x 102 cells/μL
NEUT ([1]; 100 mg/kg): 7.8 ± 2.9 x 102 cells/μL
PL ([1]; 100 mg/kg): 137 ± 26 mg/dL
Retic ([1]; 100 mg/kg): 179 ± 45.9 x 109 cells/L
T-CHO ([1]; 100 mg/kg): 88 ± 20 mg/dL
TG ([1]; 100 mg/kg): 19 ± 10 mg/dL
TP ([1]; 100 mg/kg): 5.8 ± 0.2 g/dL
WBC ([1]; 100 mg/kg): 74.8 ± 16.8 x 102 cells/μL
viability at 0.0137174 μM ([2]; 0.0137174 μM): 99.9%
viability at 0.123457 μM ([2]; 0.123457 μM): 97.4%
viability at 0.37037 μM ([2]; 0.37037 μM): 99.9%
viability at 1.11111 μM ([2]; 1.11111 μM): 105%
viability at 3.33333 μM ([2]; 3.33333 μM): 94.3%
viability at 10 μM ([2]; 10 μM): 77.4%
cell viability in HUDEP-2 cells (HUDEP-2 cells; 0.00457247 μM): 120.908 and 97.8824 and 118.228
cell viability in HUDEP-2 cells (HUDEP-2 cells; 0.0137174 μM): 97.2549 and 110.051
cell viability in HUDEP-2 cells (HUDEP-2 cells; 0.0411523 μM): 112.451 and 91.2941 and 106.985
cell viability in HUDEP-2 cells (HUDEP-2 cells; 0.123457 μM): 96.9412 and 105.622
cell viability in HUDEP-2 cells (HUDEP-2 cells; 0.37037 μM): 97.8824 and 103.918
cell viability in HUDEP-2 cells (HUDEP-2 cells; 1.11111 μM): 96.3137 and 96.4225
cell viability in HUDEP-2 cells (HUDEP-2 cells; 3.33333 μM): 88.1569 and 84.8382
cell viability in HUDEP-2 cells (HUDEP-2 cells; 10 μM): 78.4314 and 79.046
cytotoxic effect on viability (HUDEP-2 cells; HUDEP-2, 3 days): essentially no cytotoxic effect
IC50 (MLL4): > 100 µM
